Test results: patent US10077261B2, “Imidazolin-5-one derivative useful as FASN inhibitors for the treatment of cancer” (Janssen Pharmaceutica NV, priority 2012, dated 2018)

Tests used:
[1] = system: A2780 ovarian cells; assay: A2780 ovarian cell proliferation assay in lipid reduced medium, without palmitate (MTT); type: cell-based; conditions: Homo sapiens, A2780, 96 h; read-out: pIC50 A2780 Ovarian Cell, Without Palmitate (converted)
[2] = system: A2780 ovarian cells; assay: A2780 ovarian cell proliferation assay in lipid reduced medium, with palmitate (MTT); type: cell-based; conditions: Homo sapiens, A2780, 96 h; read-out: pIC50 A2780 Ovarian Cell, With Palmitate (converted)
Method in brief: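 Seeded cells were switched next day to lipid-reduced serum, exposed to compound and 25 μM palmitate complexed with fatty-acid-free BSA, and incubated 96 h. Proliferation was then determined by MTT absorbance at 544 nm, with a best-fit curve of signal against concentration.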

[3] = biological target: Fatty Acid Synthase Keto-reductase Domain (FASN KR) (Homo sapiens, UniProt P49327); assay: Fatty Acid Synthase keto-reductase domain (FASN KR) inhibition, NADPH oxidation at 340 nm
Fatty Acid Synthase Keto-reductase Domain (FASN KR), sequence (P49327 whole entry, the tested form may be a part): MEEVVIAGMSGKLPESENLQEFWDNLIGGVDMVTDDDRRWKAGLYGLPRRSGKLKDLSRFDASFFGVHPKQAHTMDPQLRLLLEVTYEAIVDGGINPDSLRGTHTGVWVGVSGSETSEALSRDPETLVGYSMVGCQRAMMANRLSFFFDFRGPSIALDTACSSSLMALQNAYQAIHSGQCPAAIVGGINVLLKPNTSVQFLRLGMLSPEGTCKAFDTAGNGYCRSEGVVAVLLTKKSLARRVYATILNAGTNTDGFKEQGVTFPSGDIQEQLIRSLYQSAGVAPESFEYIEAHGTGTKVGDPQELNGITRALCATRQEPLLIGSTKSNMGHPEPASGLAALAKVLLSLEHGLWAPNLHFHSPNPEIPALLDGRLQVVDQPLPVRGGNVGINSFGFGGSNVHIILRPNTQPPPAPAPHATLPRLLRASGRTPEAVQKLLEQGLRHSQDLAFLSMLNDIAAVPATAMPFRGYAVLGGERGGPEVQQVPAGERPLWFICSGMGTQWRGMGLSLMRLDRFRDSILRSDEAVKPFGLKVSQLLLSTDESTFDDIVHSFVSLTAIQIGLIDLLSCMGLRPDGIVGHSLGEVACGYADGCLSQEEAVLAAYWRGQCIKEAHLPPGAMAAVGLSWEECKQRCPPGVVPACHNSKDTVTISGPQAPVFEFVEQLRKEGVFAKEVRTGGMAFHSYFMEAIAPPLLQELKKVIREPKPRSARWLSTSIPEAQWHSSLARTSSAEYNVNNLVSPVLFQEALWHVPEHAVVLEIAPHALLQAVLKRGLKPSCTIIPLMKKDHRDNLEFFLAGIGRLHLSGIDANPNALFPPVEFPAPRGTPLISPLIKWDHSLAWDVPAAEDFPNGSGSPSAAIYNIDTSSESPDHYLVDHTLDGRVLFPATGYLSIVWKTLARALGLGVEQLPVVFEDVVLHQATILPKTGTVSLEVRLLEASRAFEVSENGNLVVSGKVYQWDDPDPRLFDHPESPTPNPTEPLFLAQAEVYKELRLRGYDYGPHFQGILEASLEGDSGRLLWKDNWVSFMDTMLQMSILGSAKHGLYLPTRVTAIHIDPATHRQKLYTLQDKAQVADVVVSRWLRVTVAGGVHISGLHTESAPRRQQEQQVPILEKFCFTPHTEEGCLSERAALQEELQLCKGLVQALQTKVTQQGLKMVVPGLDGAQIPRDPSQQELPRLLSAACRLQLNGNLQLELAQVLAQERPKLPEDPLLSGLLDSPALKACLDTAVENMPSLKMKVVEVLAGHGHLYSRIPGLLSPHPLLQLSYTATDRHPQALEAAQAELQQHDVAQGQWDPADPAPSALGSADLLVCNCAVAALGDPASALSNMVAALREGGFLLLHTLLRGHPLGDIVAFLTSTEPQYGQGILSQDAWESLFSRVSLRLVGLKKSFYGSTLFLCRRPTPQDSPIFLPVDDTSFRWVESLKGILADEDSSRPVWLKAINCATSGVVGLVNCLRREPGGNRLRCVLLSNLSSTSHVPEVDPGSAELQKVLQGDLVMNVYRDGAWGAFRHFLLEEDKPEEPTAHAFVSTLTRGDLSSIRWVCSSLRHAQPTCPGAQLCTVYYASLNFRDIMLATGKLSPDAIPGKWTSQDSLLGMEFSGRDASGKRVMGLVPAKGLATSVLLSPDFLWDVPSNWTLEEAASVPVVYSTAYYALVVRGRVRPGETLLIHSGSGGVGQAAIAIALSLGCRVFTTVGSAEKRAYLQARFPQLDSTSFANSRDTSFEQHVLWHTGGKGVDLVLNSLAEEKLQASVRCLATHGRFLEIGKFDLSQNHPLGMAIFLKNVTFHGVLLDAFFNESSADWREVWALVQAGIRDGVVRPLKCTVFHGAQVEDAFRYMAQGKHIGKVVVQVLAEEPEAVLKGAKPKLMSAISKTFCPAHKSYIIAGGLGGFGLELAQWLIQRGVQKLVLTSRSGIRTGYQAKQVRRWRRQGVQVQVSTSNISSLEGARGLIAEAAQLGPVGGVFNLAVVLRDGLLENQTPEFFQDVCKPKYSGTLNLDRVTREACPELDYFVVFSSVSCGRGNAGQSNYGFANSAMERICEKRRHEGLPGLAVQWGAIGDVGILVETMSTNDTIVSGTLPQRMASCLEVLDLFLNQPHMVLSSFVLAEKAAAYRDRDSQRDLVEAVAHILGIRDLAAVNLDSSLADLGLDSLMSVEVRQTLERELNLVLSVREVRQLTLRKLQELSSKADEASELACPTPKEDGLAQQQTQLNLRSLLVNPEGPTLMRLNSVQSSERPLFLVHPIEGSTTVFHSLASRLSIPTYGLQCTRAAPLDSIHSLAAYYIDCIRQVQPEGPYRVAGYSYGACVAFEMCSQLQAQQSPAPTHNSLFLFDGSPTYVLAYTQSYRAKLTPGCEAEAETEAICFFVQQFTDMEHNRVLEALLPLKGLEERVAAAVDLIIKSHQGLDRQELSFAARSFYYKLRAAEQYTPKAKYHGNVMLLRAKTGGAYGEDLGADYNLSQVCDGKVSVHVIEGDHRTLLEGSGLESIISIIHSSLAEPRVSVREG
Description: After 20 minutes incubation at room temperature the plate was measured again (T2).
The decrease in absorbance was calculated as (Absorbance before incubation T1)−(Absorbance following incubation T2).
A plot of Controlmin versus test compound concentration was fitted to a 4-parameter logistic curve using a non-linear least squares regression method.

[4] = system: LNCaP-Vancouver prostate cells; assay: In vitro LNCaP Vancouver prostate cell proliferation assay in lipid reduced medium; type: cell-based; conditions: read-out: pIC50 LNCaP_Vancouver prostate cell (converted)
Description: LNCaP-Vancouver prostate cells were obtained from the Vancouver Prostate Cancer Centre. Cells were maintained in RPMI-1640, 10% Fetal Calf Serum (FCS, Hyclone), 2 mM glutamine and 50 μg/ml Gentamicin.
For the proliferation experiment 1500 LNCaP-Vancouver cells per well were seeded in a 384-well black with clear bottom plate (costar 3712BC) in 40 μl RPMI-1640, 10% Lipid reduced serum (LRS, Hyclone), 50 μg/ml Gentamicin and 2 mM Glutamine and incubated at 37° C., 5% CO2. The next day 10 μl of test compound/DMSO diluted in medium was added (3E-5M, 1E-5M, 3E-6M, 1E-6M, 3E-7M, 1E-7M, 3E-8M, 1E-8M final concentration). Compounds were tested in duplicate. After 96 h incubation at 37° C., 5% CO2 25 μl ATP-glow mix was added. The plate was incubated for 30 min at 37° C. and luminescence was measured with the Envision.
Analysis: Determination of pIC50 Values
pIC50 values were calculated as follows.
where mLC and mHC are the means of the low control wells and high control wells on the plate, after manual exclusion of outliers. The relation between the % Controlmin values and concentration was fitted to a 4-parameter logistic curve using a non-linear least squares regression method to determine the pIC50 value. Outlying data points were excluded manually to get a correct fit. The pIC50 corresponds to −log 10(IC50), if the IC50 is expressed in molar units (http://www.ncbi.nlm.nih.gov/books/NBK91994). The IC50 parameter was always determined by non-linear regression, but one or more of the other parameters may have been held fixed on a relevant input value, such as 0 for the bottom values.
For dose response curves with FASN inhibitors in LNCaP-Vancouver or PC-3M-Luc-C6 cells the curves bottom out around 30 to 40% of the control value. A standard fit PL2, forcing the lower bound to this level was used.
Representative compounds of the present invention were tested according to the procedure as described in Biological Example 4a and 4b above, with results as listed in Table 9, below.

[5] = biological target: T1, hFASN enzyme (full length) (Homo sapiens, UniProt P49327); assay: Fatty Acid Synthase (FASN) inhibition scintillation proximity assay; type: biochemical; conditions: for inhibition at 10 µM: read-out: Human FASN % inhibition @ 10 μM, 10 μM test compound; for IC50: read-out: Human FASN pIC50 (converted)
T1 construct: 10 μL hFASN enzyme (full length, 300 ng, purified in house); made in house
T1 sequence (P49327 whole entry): as the sequence (P49327 whole entry, the tested form may be a part) above
Method in brief: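 Full-length in-house purified enzyme (300 ng) was tested in 100 mM KH2PO4 pH 7.5, 1 mM DTT with ³H-acetyl-CoA and malonyl-CoA as substrates; compounds ranged 0.01–30 μM. Reactions were stopped with streptavidin imaging beads, read by LEADseeker at 610 nm, and fitted to a 4-parameter logistic curve.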

| IC50 [1] | IC50 [2] | IC50 [3] | IC50 [4] | inhibition at 10 µM [5] | IC50 [5] | Human FASN pIC50 ([5]; hFASN enzyme full length, scintillation proximity assay, "~" = standard error of pIC50 larger than 0.5) | Compound |
| --- | --- | --- | --- | --- | --- | --- | --- |
| 339 nM | > 10000 nM | 263 nM | 1070 nM | 99% | 91.2 nM |  | O=C(C1CC1)N1CC[C@@H](CN2C(=O)C3(CC3)N=C2c2ccc(-c3ccc4cnc(F)cc4c3)cc2)C1 [compound 220, (R)-6-((1-(cyclopropanecarbonyl)pyrrolidin-3-yl)methyl)-5-(4-(3-fluoroisoquinolin-6-yl)phenyl)-4,6-diazaspiro[2.4]hept-4-en-7-one] |
| 550 nM | > 10000 nM | 105 nM | 1230 nM | 107% | 40.7 nM |  | Cc1cc(C2=NC3(CC3)C(=O)N2C[C@@H]2CCN(C(=O)C3CC3)C2)ccc1-c1ccc2sccc2c1 [compound 230, (R)-5-(4-(benzo[b]thiophen-5-yl)-3-methylphenyl)-6-((1-(cyclopropanecarbonyl)pyrrolidin-3-yl)methyl)-4,6-diazaspiro[2.4]hept-4-en-7-one] |
| 2400 nM | > 6170 nM | 324 nM | 1820 nM | 105% | 83.2 nM |  | O=C(C1CC1)N1CC[C@@H](CN2C(=O)C3(CC3)N=C2c2ccc(-c3ccc4occc4c3)c(F)c2)C1 [compound 232, (R)-5-(4-(benzofuran-5-yl)-3-fluorophenyl)-6-((1-(cyclopropanecarbonyl)pyrrolidin-3-yl)methyl)-4,6-diazaspiro[2.4]hept-4-en-7-one] |
| 513 nM | > 10000 nM | 148 nM | 479 nM | 99% | 69.2 nM |  | O=C(C1CC1)N1CC[C@@H](CN2C(=O)C3(CC3)N=C2c2ccc(-c3ccc4ncccc4c3)cc2F)C1 [compound 248, (R)-6-((1-(cyclopropanecarbonyl)pyrrolidin-3-yl)methyl)-5-(2-fluoro-4-(quinolin-6-yl)phenyl)-4,6-diazaspiro[2.4]hept-4-en-7-one] |
| ~2090 nM | > 10000 nM | 81.3 nM | 3630 nM | 106% | 38.9 nM |  | Cc1sc2ccc(-c3ccc(C4=NC5(CC5)C(=O)N4C[C@@H]4CCN(C(=O)C5CC5)C4)cc3)cc2c1C [compound 296, (R)-6-((1-(cyclopropanecarbonyl)pyrrolidin-3-yl)methyl)-5-(4-(2,3-dimethylbenzo[b]thiophen-5-yl)phenyl)-4,6-diazaspiro[2.4]hept-4-en-7-one] |
| ~229 nM | > 10000 nM |  | 302 nM |  |  |  | O=C(C1CC1)N1CC[C@@H](CN2C(=O)C3(CC3)N=C2c2ccc(-c3ccc4cc(F)ccc4c3)cc2)C1 [compound 311, (R)-6-((1-(cyclopropanecarbonyl)pyrrolidin-3-yl)methyl)-5-(4-(6-fluoronaphthalen-2-yl)phenyl)-4,6-diazaspiro[2.4]hept-4-en-7-one] |
| 20 nM | > 10000 nM | 69.2 nM | 105 nM | 103% | 50.1 nM |  | Cc1cc(-c2ccc3cn(C)nc3c2)ccc1C1=NC2(CC2)C(=O)N1CC1CN(C(=O)C2(C)CC2)C1 [compound 336, 5-(2-methyl-4-(2-methyl-2H-indazol-6-yl)phenyl)-6-((1-(1-methylcyclopropanecarbonyl)azetidin-3-yl)methyl)-4,6-diazaspiro[2.4]hept-4-en-7-one] |
| ~50.1 nM | > 10000 nM | 120 nM | 708 nM | 98% | 49 nM |  | Cn1ncc2cc(-c3ccc(C4=NC5(CC5)C(=O)N4CC4CN(C(=O)C5CC5)C4)c(F)c3)ccc21 [compound 347, 6-((1-(cyclopropanecarbonyl)azetidin-3-yl)methyl)-5-(2-fluoro-4-(1-methyl-1H-indazol-5-yl)phenyl)-4,6-diazaspiro[2.4]hept-4-en-7-one] |
| 1550 nM | > 10000 nM | ~3890 nM | 3020 nM | 90% |  | 6.1 | Cn1ncc2cc(-c3ccc(C4=NC5(CC5)C(=O)N4C[C@@H]4CCN(C(=O)C5CC5)C4)nc3)ccc21 [compound 397, 6-{[(3R)-1-(Cyclopropylcarbonyl)pyrrolidin-3-yl]methyl}-5-[5-(1-methyl-1H-indazol-5-yl)pyridin-2-yl]-4,6-diazaspiro[2.4]hept-4-en-7-one] |
|  |  | 5370 nM | 4790 nM | 80% | 955 nM |  | Cc1ccc2cc(-c3ccc(C4=NC5(CC5)C(=O)N4CC4CN(C(=O)C5CC5)C4)cc3)ccc2n1 [compound 510, 6-{[1-(Cyclopropylcarbonyl)azetidin-3-yl]methyl}-5-[4-(2-methylquinolin-6-yl)phenyl]-4,6-diazaspiro[2.4]hept-4-en-7-one] |
|  |  |  | 2820 nM |  |  |  | O=C([C@H]1CCCO1)N1CC[C@@H](CN2C(=O)C3(CCOCC3)N=C2c2ccc(-c3ccc4occc4c3)cc2)C1 [compound 669, 2-[4-(1-Benzofuran-5-yl)phenyl]-3-({(3R)-1-[(2R)-tetrahydro-furan-2-ylcarbonyl]pyrrolidin-3-yl}methyl)-8-oxa-1,3-diazaspiro[4.5]dec-1-en-4-one] |
| ~407 nM | > 10000 nM |  | 2630 nM |  |  |  | Cn1ncc2cc(-c3ccc(C4=NC5(CCOCC5)C(=O)N4C[C@@H]4CCN(C(=O)C5CC5)C4)cc3)ccc21 [compound 672, 3-{[(3R)-1-(Cyclopropylcarbonyl)pyrrolidin-3-yl]methyl}-2-[4-(1-methyl-1H-indazol-5-yl)phenyl]-8-oxa-1,3-diazaspiro[4.5]dec-1-en-4-one] |
|  |  | 224 nM | 339 nM | 98% | 79.4 nM |  | O=C(C1CC1)N1CC[C@@H](CN2C(=O)C3(CCOC3)N=C2c2ccc(-c3ccc4cccnc4c3)cc2)C1 (stereo partly drawn) [compound 680, 3-{[(3R)-1-(Cyclopropylcarbonyl)pyrrolidin-3-yl]methyl}-2-(4-quinolin-7-ylphenyl)-7-oxa-1,3-diazaspiro[4.4]non-1-en-4-one] |
|  |  | 676 nM | 3800 nM | 98% | 182 nM |  | O=C(C1CC1)N1CC[C@@H](CN2C(=O)C3(CCOC3)N=C2c2ccc(-c3ccc4occc4c3)cc2)C1 (stereo partly drawn) [compound 686, 2-[4-(1-Benzofuran-5-yl)phenyl]-3-{[(3R)-1-(cyclopropylcarbonyl)pyrrolidin-3-yl]methyl}-7-oxa-1,3-diazaspiro[4.4]non-1-en-4-one] |
| 708 nM | > 10000 nM |  | 2340 nM |  |  |  | Cn1ncc2cc(-c3ccc(C4=NC5(CCOC5)C(=O)N4C[C@@H]4CCN(C(=O)C5CC5)C4)cc3)ccc21 (stereo partly drawn) [compound 690, 3-{[(3R)-1-(Cyclopropylcarbonyl)pyrrolidin-3-yl]methyl}-2-[4-(1-methyl-1H-indazol-5-yl)phenyl]-7-oxa-1,3-diazaspiro[4.4]non-1-en-4-one] |
|  |  | 646 nM | 1660 nM | 93% | 245 nM |  | COC(=O)N1CC2(C1)N=C(c1ccc(-c3ccc(-c4cnn(C)c4)cc3)cc1)N(C[C@@H]1CCN(C(=O)C3CC3)C1)C2=O [compound 725, Methyl 7-{[(3R)-1-(cyclopropylcarbonyl)pyrrolidin-3-yl]methyl}-6-[4′-(1-methyl-1H-pyrazol-4-yl)biphenyl-4-yl]-8-oxo-2,5,7-triazaspiro[3.4]oct-5-ene-2-carboxylate] |
